Test system: hepatocytes
Assay: Seq-Well scRNA-Seq of hepatocytes after APAP overdose (signature scores, DEG vs untreated)
Format: in vivo, mouse
[1] = time point A6 vs untreated (UT)

## CC(=O)Nc1ccc(O)cc1 [APAP, acetaminophen]
[1]
  avg_logFC Mrpl42: −0.2845
  avg_logFC Mrps18c: −0.3663
  avg_logFC Msn: 0.2602
  avg_logFC Mup2: −0.5045
  avg_logFC Mvd: −0.2704
  avg_logFC Myo1b: 0.2624
  avg_logFC Naprt1: −0.3381
  avg_logFC Ndufa1: −0.3645
  avg_logFC Ndufb3: −0.3272
  avg_logFC Ndufb8: −0.3481
  avg_logFC Ndufc1: −0.3444
  avg_logFC Ndufs4: −0.3132
  avg_logFC Ndufs8: −0.3614
  avg_logFC Ndufv3: −0.3971
  avg_logFC Nedd8: −0.3564
  avg_logFC Nedd41: 0.2812
  avg_logFC Net1: 0.3479
  avg_logFC Nop10: −0.2919
  avg_logFC Nrp1: 0.3608
  avg_logFC Nucks1: 0.3558
  avg_logFC Nudt4: 0.2542
  avg_logFC Oaz1: −0.3472
  avg_logFC Otc: −0.299
  avg_logFC Pacsin2: 0.3708
  avg_logFC Palld: 0.3414
  avg_logFC Pank1: −0.3527
  avg_logFC Paqr9: −0.3323
  avg_logFC Pet100: −0.28
  avg_logFC Phc2: 0.312
  avg_logFC Pi4k2a: 0.3536
  avg_logFC Pik3c2a: 0.3249
  avg_logFC Plk3: 0.4166
  avg_logFC Pnkd: −0.2928
  avg_logFC Ppp1r12a: 0.3563
  avg_logFC Prdx5: −0.2821
  avg_logFC Proc: −0.2707
  avg_logFC Psmb1: −0.3585
  avg_logFC Psmb3: −0.3303
  avg_logFC Psmb6: −0.3194
  avg_logFC Ptp4a1: 0.2627
  avg_logFC Ptpn2: 0.2734
  avg_logFC Ptpn12: 0.3342
  avg_logFC Purb: 0.3525
  avg_logFC Pvrl2: −0.2613
  avg_logFC Pxk: 0.2819
  avg_logFC Pxmp2: −0.3671
  avg_logFC Rab6a: 0.3234
  avg_logFC Rbm25: 0.4215
  avg_logFC Rexo2: −0.3263
  avg_logFC Rlim: 0.3102
  avg_logFC Rnaseh2c: −0.3257
  avg_logFC Romo1: −0.3359
  avg_logFC Rps3: −0.3493
  avg_logFC Rps9: −0.3718
  avg_logFC Rps10: −0.3369
  avg_logFC Rps21: −0.3645
  avg_logFC Rsl1d1: 0.3461
  avg_logFC S100a1: −0.3743
  avg_logFC Sar1b: −0.3079
  avg_logFC Sbno1: 0.3671
  avg_logFC Sc4mol: −0.3262
  avg_logFC Scaf11: 0.3598
  avg_logFC Scd1: −0.4661
  avg_logFC Sdhb: −0.2896
  avg_logFC Sdhd: −0.3353
  avg_logFC Sdr9c7: −0.26
  avg_logFC Sdsl: 0.2593
  avg_logFC Sec61b: −0.2903
  avg_logFC Selk: −0.3383
  avg_logFC Sf1: 0.3023
  avg_logFC Sfpq: 0.394
  avg_logFC Sgk1: 0.2843
  avg_logFC Shb: 0.3152
  avg_logFC Sigmar1: −0.3055
  avg_logFC Sirt3: −0.346
  avg_logFC Slc2a2: −0.3123
  avg_logFC Slc10a1: −0.3258
  avg_logFC Slco1a1: −0.3628
  avg_logFC Slco1a4: 0.3137
  avg_logFC Slirp: −0.3085
  avg_logFC Smap2: 0.3489
  avg_logFC Smdt1: −0.3673
  avg_logFC Smg1: 0.335
  avg_logFC Srsf11: 0.4012
  avg_logFC Stbd1: −0.2732
  avg_logFC Stk17b: 0.2911
  avg_logFC Stom: 0.3232
  avg_logFC Sult1d1: −0.3165
  avg_logFC Tbl1xr1: 0.3075
  avg_logFC Tcea3: −0.355
  avg_logFC Tceb2: −0.3207
  avg_logFC Tgm2: 0.3993
  avg_logFC Tgoln1: 0.2657
  avg_logFC Timm8b: −0.3936
  avg_logFC Tjp1: 0.2862
  avg_logFC Tm7sf2: −0.3164
  avg_logFC Tmbim6: −0.2711
  avg_logFC Tmem37: −0.2822
  avg_logFC Tmem86b: −0.2582
  avg_logFC Tmem106b: 0.2802
  avg_logFC Tmem147: −0.2838
  avg_logFC Tmem150a: −0.2535
  avg_logFC Tmem160: −0.339
  avg_logFC Tmem242: −0.2725
  avg_logFC Tmem243: −0.3791
  avg_logFC Tmem258: −0.2769
  avg_logFC Tnks2: 0.3176
  avg_logFC Tob1: −0.3387
  avg_logFC Tpr: 0.4409
  avg_logFC Tsc22d1: −0.2997
  avg_logFC Tspo: −0.3157
  avg_logFC Txn1: −0.3091
  avg_logFC Ubl5: −0.3033
  avg_logFC Ucp2: 0.2612
  avg_logFC Ugt2a3: −0.3075
  avg_logFC Uqcc2: −0.3269
  avg_logFC Wdr43: 0.3438
  avg_logFC Yap1: 0.3281
  avg_logFC Zfp683: −0.4217
  avg_logFC Zyx: 0.2983
  avg_logFC mmu-mir-6236: 0.5206
Time point A24
  Adck3 pct.1: 0.68
  Arhgap5 pct.1: 0.566
  Arhgef12 pct.1: 0.541
  Arl5a pct.1: 0.459
  Atp1a1 pct.1: 0.532
  Atp5e pct.1: 0.688
  Atp5f1 pct.1: 0.8
  Atp6v1f pct.1: 0.244
  Atp11c pct.1: 0.649
  Atp13a3 pct.1: 0.546
  Azin1 pct.1: 0.46
  Bnip3 pct.1: 0.39
  Brd2 pct.1: 0.512
  Bzw1 pct.1: 0.487
  Cald1 pct.1: 0.79
  Caprin1 pct.1: 0.567
  Ces3b pct.1: 0.683
  Copb2 pct.1: 0.595
  Copz1 pct.1: 0.501
  Cox7b pct.1: 0.768
  Cpne3 pct.1: 0.456
  Ctnnb1 pct.1: 0.566
  Cyp4a14 pct.1: 0.245
  Cyp27a1 pct.1: 0.759
  Ddost pct.1: 0.493
  Dennd5b pct.1: 0.476
  Deptor pct.1: 0.583
  Dnajb9 pct.1: 0.373
  Dnajb11 pct.1: 0.557
  Eci1 pct.1: 0.581
  Edem1 pct.1: 0.566
  Ehhadh pct.1: 0.552
  Eif4b pct.1: 0.542
  Ell2 pct.1: 0.552
  Eprs pct.1: 0.587
  Erbb2ip pct.1: 0.482
  Erp44 pct.1: 0.469
  Esd pct.1: 0.67
  Fam120a pct.1: 0.51
  Fasn pct.1: 0.449
  Fcgrt pct.1: 0.461
  Gch1 pct.1: 0.502
  Gm23935 pct.1: 0.919
  Gm24245 pct.1: 0.369
  Gpam pct.1: 0.329
  Grlf1 pct.1: 0.413
  Gstm3 pct.1: 0.293
  H6pd pct.1: 0.675
  Id3 pct.1: 0.278
  Ide pct.1: 0.604
  Iqgap2 pct.1: 0.748
  Ireb2 pct.1: 0.469
  Jak1 pct.1: 0.482
  Lasp1 pct.1: 0.361
  Lgr4 pct.1: 0.399
  Lpin2 pct.1: 0.7
  Macf1 pct.1: 0.349
  Magt1 pct.1: 0.52
  Man2a1 pct.1: 0.675
  Mbnl1 pct.1: 0.428
  Met pct.1: 0.434
  Mt1 pct.1: 0.41
  Mtss1 pct.1: 0.581
  Nadk2 pct.1: 0.539
  Narf pct.1: 0.411
  Ndufa6 pct.1: 0.692
  Ndufb6 pct.1: 0.636
  Ndufc2 pct.1: 0.465
  Nop10 pct.1: 0.227
  Nr1i3 pct.1: 0.237
  Nrp1 pct.1: 0.426
  Osbp19 pct.1: 0.569
  Osbpl1a pct.1: 0.592
  Ostc pct.1: 0.514
  Pik3c2a pct.1: 0.36
  Plin5 pct.1: 0.181
  Prdx4 pct.1: 0.47
  Prdx5 pct.1: 0.731
  Prkaa2 pct.1: 0.451
  Prox1 pct.1: 0.477
  Proz pct.1: 0.622

Reference: patent US20230053540A1, “TREATMENT OF LIVER INJURY” (Massachusetts Institute of Technology, priority 2019, published 2023)
